Patent publication US20260373119A1, “NOVEL COMPOUND, AND COMPOSITION FOR PREVENTING OR TREATING HER2-POSITIVE CANCER, COMPRISING SAME” (EWHA UNIVERSITY - INDUSTRY COLLABORATION FOUNDATION, priority 2022, published 2026)

Legend:
EGFR = EGFR (Homo sapiens, UniProt P00533); assay: kinase profiling, EGFR; assay type: biochemical; conditions: read-out: In vitro kinase inhibitory activity (%)
Procedure: (§1) Kinase inhibitory activity of the candidate compound at 10 μM and 25 μM was assessed using Eurofins Kinase Profiling Services. Inhibitory effects on c-RAF, EGFR, ErbB2, ErbB4, and PI3 kinase were analyzed according to the Kinase Profiler Service Assay protocol.

PI3 Kinase (p110a/p85a) = PI3 Kinase (p110a/p85a) (Homo sapiens, UniProt P42336); assay: kinase profiling, PI3 kinase; assay type: biochemical; conditions: read-out: In vitro kinase inhibitory activity (%)
Procedure: as §1

HER2 = assay: JIMT-1 xenograft, HER2 levels; assay type: in vivo, mice; conditions: 4 mg/kg
Procedure: Xenograft mice were generated to evaluate the anticancer effects of the candidate compound. NCI-N87 and JIMT-1 cells (5×10^6 cells), dissolved in 100 μL of 1× phosphate-buffered saline (PBS), were subcutaneously injected into the right flanks of 5-week-old female athymic nude mice (Envigo, USA) or 4-week-old female NOD-SCID mice (Koatech, South Korea). When the tumors reached a volume of 90-100 mm^3, the mice were randomized into designated groups. For the NCI-N87 xenograft, intravenous administration was performed six times at 3-day intervals. For the JIMT-1 xenograft, intraperitoneal administration was performed eight times at 3-day intervals. […] Tumor size changes were monitored until the mean tumor size in the control group reached 2,000-2,500 mm^3. On day 28 for the NCI-N87 xenograft and day 46 for the JIMT-1 xenograft, the mice were sacrificed, and tumors were excised to determine relative tumor sizes. Tumor length (L) and width (W) were measured with calipers, and tumor volume was calculated using the formula: […]
For immunohistochemistry (IHC) analysis, tumors from the xenograft models were prepared as paraffin-embedded sections. […] The control group was counterstained with hematoxylin, and the IHC staining was evaluated under an optical microscope at 200× magnification.

[1] = target: Nluc-ELF3 / Cluc-MED23391-462 (Homo sapiens, UniProt Q9ULK4); assay: split luciferase biosensor assay; assay type: cell-based; conditions: dose-dependent
Procedure: The biosensor used for the assay was prepared using the In-Fusion® HD Cloning Kit with firefly (Photinus pyralis) luciferase. The luciferase enzyme was split into two fragments (Nluc and Cluc). The full-length ELF3 (wild-type) and MED23 mutants were cloned into the […] and KpnI sites, and the NotI and KpnI sites of p3Xflag-myc-CMV26, respectively. The full-length cDNA of human ELF3 (accession number NM_001114309.1) was fused to the N-terminal fragment of split luciferase (Nluc), while the […] of MED23 (accession number NM_001270521.1) was fused to the C-terminal of split luciferase (Cluc).
Bioluminescence intensity, complementarily generated by ELF3-MED23 binding, was measured using this method (FIG. 3B).

NCI-N87 cells = assay: cell cycle analysis (FACS); assay type: cell-based
Procedure: Specifically, 5×10^5 NCI-N87 cells were seeded in 60 mm dishes and cultured until they reached 70-80% confluence. The cells were treated with varying concentrations of the candidate compound and cultured for 8 hours. The cells were treated with trypsin and then washed with cold PBS (pH 7.4). For cell cycle analysis, the cells were fixed with 70% ethanol and cultured at 4 °C for 30 minutes, followed by staining with FxCycle™ PI/RNase staining solution (Invitrogen™, USA). Cell cycle analysis was performed using a fluorescence-activated cell sorting (FACS) device (BD Biosciences, USA).

[2] = test system: c-PARP, c-caspase 7, bcl-2; assay: pro- and anti-apoptotic marker levels; assay type: cell-based
Procedure: For western blot analysis, cells were seeded in a 6-well plate and lysed in 1×RIPA lysis buffer (Cell Signaling, USA) containing 1% 0.1 M [COMPOUND LEFT OUT] and 1% 100× protease inhibitor cocktail solution (Genedepot, USA). Total protein levels were standardized using the Pierce™ BCA Protein Assay Kit (Thermo Fisher Scientific, USA) and a microplate reader (Tecan Group Ltd., Switzerland). A total of 20 μg of protein was loaded onto a 10-15% SDS-PAGE acrylamide gel and transferred to a 0.2 μm PVDF membrane (Pall Life Science, USA). The membrane was blocked with 5% skim milk or 5% BSA, and the membrane was cultured with primary antibodies (purchased from Thermo Fisher, Cell Signaling, Santa Cruz, Novus, or MBL) at room temperature for 3 hours or overnight at 4 °C. The blot was washed three times with Tris-buffered saline containing 0.1% Tween20 (1×TBST) and incubated with an HRP-conjugated secondary antibody (GeneTex, USA). Protein bands were detected using ECL solution reagents (GE Healthcare, USA) and the LAS-3000 imaging system (Fuji Photo Film Co., Ltd., Japan), and captured images were analyzed using Multi-Gauge software (Fuji Photo Film Co. Ltd.). […]
Specifically, 5×10^5 NCI-N87 cells were seeded in 60 mm dishes and cultured until they reached 70-80% confluence. […] Cell cycle analysis was performed using a fluorescence-activated cell sorting (FACS) device (BD Biosciences, USA).

[3] = target: T1, (His)6-MED23391-582 / FITC-ELF3129-145 peptide (Homo sapiens, UniProt Q9ULK4); assay: fluorescence polarization displacement assay; assay type: binding
T1 construct: 391-582 and fluorescein isothiocyanate (FITC)-labeled
T1 sequence (Q9ULK4 391-582 limits assumed): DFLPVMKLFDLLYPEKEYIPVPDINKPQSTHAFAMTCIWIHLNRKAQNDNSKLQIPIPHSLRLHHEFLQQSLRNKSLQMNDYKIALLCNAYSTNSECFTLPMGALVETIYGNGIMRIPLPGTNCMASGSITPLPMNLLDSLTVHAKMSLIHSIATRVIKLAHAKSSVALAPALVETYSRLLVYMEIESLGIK
Procedure: The samples, adjusted to a final volume of 50 μL, were incubated at room temperature for 30 minutes. Kd values were calculated using a least-squares non-linear fit method with Prism 6.0 software (GraphPad Software, USA). FP signals were measured in millipolarization (mP) units using an Infinite F200 PRO microplate reader (Tecan Group Ltd., Switzerland) at an excitation wavelength of 485 nm and an emission wavelength of 535 nm. For displacement analysis, graded concentrations of YK1 and unlabeled ELF3137-144 peptides were mixed with 80 nM (His) 6-MED23391-582 and 10 nM FITC-ELF3129-145.
The effect of compound YK1 was confirmed by measuring the reduction in FP signals, using unlabeled peptides as a positive control. The IC50 of each compound was determined by fitting the data to a four-parameter logistic equation using the Table Curve 2D program (SPSS Inc.). The Ki value was calculated using the Cheng-Prusoff equation (Ki=IC50/1+([Ligand]/Kd))

EGFR, sequence (P00533 669-1210 limits assumed): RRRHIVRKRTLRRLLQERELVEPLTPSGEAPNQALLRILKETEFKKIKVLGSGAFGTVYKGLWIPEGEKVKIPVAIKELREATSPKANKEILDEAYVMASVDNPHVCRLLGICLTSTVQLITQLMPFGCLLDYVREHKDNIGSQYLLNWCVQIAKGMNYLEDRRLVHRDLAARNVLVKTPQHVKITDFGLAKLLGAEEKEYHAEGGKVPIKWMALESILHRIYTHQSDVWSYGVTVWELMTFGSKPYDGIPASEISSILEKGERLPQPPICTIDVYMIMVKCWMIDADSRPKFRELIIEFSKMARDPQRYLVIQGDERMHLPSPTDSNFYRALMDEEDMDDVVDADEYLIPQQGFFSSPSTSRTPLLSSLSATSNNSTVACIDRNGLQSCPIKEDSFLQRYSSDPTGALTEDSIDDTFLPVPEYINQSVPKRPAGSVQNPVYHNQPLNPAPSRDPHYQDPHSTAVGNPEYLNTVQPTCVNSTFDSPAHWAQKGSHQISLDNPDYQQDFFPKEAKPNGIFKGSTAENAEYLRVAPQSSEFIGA
PI3 Kinase (p110a/p85a), sequence (P42336 whole entry): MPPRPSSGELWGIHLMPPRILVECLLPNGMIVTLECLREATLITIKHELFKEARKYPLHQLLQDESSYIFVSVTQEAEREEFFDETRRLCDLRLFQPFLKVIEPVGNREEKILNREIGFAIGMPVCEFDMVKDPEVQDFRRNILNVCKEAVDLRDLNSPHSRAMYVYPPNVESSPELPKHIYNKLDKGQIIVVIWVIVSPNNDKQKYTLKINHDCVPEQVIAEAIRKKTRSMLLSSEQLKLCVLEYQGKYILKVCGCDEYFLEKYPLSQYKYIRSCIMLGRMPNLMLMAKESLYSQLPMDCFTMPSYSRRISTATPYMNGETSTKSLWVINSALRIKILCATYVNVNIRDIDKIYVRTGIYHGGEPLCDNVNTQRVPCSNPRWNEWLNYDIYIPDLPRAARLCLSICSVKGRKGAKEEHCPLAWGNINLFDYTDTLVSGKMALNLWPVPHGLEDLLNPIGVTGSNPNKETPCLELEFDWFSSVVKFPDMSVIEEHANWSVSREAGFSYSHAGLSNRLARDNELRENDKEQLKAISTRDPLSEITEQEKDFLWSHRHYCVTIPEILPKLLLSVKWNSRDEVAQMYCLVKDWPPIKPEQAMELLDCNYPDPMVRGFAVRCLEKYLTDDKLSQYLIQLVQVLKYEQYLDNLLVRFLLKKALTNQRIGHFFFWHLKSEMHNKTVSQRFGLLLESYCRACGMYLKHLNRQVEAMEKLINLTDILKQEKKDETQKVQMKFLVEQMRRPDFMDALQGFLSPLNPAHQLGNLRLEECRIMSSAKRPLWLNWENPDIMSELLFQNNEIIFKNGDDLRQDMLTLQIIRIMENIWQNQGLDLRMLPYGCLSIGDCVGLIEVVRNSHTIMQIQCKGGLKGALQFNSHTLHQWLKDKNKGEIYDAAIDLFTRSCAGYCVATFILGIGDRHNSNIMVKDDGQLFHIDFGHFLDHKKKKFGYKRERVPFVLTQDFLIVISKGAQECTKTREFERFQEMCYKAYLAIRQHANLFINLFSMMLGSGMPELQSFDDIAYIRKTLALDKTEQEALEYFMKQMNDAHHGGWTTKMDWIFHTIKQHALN
PI3 Kinase (p110a/p85a), sequence (P27986 whole entry partner): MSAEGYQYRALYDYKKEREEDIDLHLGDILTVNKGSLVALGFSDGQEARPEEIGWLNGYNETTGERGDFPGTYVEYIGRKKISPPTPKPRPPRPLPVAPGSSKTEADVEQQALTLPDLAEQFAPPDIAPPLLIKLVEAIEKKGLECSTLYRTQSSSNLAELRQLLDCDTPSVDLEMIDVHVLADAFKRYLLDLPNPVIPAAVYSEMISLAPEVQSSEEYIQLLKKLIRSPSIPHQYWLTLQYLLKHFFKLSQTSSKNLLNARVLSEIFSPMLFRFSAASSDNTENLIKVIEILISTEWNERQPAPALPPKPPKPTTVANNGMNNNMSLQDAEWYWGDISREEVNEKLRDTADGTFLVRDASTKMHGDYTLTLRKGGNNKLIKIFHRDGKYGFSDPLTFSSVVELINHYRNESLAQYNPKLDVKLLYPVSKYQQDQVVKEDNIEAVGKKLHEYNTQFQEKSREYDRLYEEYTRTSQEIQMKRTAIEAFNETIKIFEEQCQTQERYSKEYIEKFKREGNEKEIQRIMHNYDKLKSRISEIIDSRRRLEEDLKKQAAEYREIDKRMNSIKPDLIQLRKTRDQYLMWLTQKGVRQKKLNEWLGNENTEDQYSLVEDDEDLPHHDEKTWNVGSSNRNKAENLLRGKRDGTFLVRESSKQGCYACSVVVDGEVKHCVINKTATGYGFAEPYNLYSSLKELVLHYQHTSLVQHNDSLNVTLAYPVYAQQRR

inhibition at 10 µM (EGFR; 10 μM): 0% | inhibition at 25 µM (EGFR; 25 μM): 0% | inhibition at 10 µM (PI3 Kinase (p110a/p85a); 10 μM): 3% | inhibition at 25 µM (PI3 Kinase (p110a/p85a); 25 μM): 17% | Ki ([3]; 80 nM (His)6-MED23391-582, 10 nM FITC-ELF3129-145, Cheng-Prusoff, read-out: PPI inhibitory activity calculated based on Ki value): 4.27 ± 0.25 µM | decrease in FP signals ([3]; displacement of FITC-ELF3129-145 from MED23391-582): significant decrease in FP signals
Structure (SMILES): CC(=O)N1N=C(c2cccc(O)c2)CC1c1ccc(Cl)cc1 (stereo not drawn) [Compound 15, 1-[5-(4-Chlorophenyl)-3-(3-hydroxyphenyl)-4,5-dihydropyrazol-1-yl]-ethanone]
HER2 levels (HER2): significant reduction in HER2 levels | luciferase activity [1]: dose-dependently and significantly reduced | G1 arrest, S and G2/M phases (NCI-N87 cells): promoted overall G1 arrest, accompanied by a decrease in the S and G2/M phases | G1 cell fraction (NCI-N87 cells; time- and dose-dependent): significant increase in the G1 cell fraction | anti-apoptotic marker bcl-2 [2]: reduced the levels of the anti-apoptotic marker bcl-2 | pro-apoptotic markers c-PARP and c-caspase 7 [2]: induced an increase in the pro-apoptotic markers c-PARP and c-caspase 7
